From patent US20250171437A1 (Agios Pharmaceuticals,Inc., priority 2022, published 2025) come the findings set out here.

Bounds are passed on as bounds.

The target of the assay is T1, human PAH with the R408W mutation (A375 R408W cells) (Homo sapiens, UniProt P00439, R408W).
T1 construct: expressed in transfected cells
T1 sequence (P00439 1-452 R408W): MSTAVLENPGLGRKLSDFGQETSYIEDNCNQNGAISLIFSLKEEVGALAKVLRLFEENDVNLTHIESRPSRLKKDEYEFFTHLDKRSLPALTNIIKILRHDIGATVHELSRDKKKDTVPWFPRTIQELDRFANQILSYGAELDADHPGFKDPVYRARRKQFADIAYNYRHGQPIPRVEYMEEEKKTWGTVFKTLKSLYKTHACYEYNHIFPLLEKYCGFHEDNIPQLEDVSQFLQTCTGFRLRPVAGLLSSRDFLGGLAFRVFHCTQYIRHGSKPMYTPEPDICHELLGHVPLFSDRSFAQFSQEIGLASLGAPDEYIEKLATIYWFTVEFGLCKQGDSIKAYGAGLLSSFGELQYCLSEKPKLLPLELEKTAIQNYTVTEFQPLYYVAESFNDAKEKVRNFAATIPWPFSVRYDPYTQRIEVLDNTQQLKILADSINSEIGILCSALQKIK
Put plainly: Cell Based Phenylalanine Flux Assay. As to conditions: A375 cells expressing R408W PAH; 24 hrs with compound, then 20 μM sepiapterin and 800 μM 13C9,15N-Phenylalanine for 4 hours; 13C-Tyrosine by LC-MS; average where tested multiple times. The procedure: Cells expressing R408W PAH were made by transducing A375 cells with lentivirus encoding human PAH with the R408W mutation in pLVX-Puro, then selecting with puromycin until stable cell lines were generated. A375 R408W cells were seeded into 96 well plates in DMEM+10% FBS at a density of 40,000 cells/well one hour prior to compound addition. Compounds were resuspended in DMSO, and 2-fold serial dilutions were performed to generate a 10-point dose curve. Compounds were added to plated cells in a total volume of 100 μl, and a final DMSO concentration of 0.5%. Each compound was tested in duplicate. Following compound addition, cells were placed in a 5% CO2, 37° C. tissue culture incubator for 24 hrs. After the incubation period, 20 μM sepiapterin and 800 μM 13C9,15N-Phenylalanine were added. After 4 hours, cell media was removed. An aliquot of 10 μl of cell media was combined with 200 μl of extraction buffer (80% acetonitrile/20% H2O) for each well. Determination of ^13C-Tyrosine concentration was assessed by liquid chromatography mass spectrometry.
Specific compounds disclosed herein were tested in the foregoing assay and they were determined to have an AC50 according to the following scores: (A) less than or equal to 0.500 μM, (B) greater than 0.500 and less than […], (C) greater than or equal to 1.000 and less than 5.000 μM, (D) greater than or equal to 5.000 μM, (E) no fit, and (NT) not tested, as shown below. Where a compound was tested multiple times, the average value of the tests is reported.
A word on the AC50: it is the concentration at which the activity in the assay is half-maximal. Regarding `Cc1nc(C2(O)CCC2)oc1C(=O)N1CCc2[nH]cnc2C1c1nc2cc(F)ccc2o1` (stereo not drawn) [listing 1 of 2 here], the AC50 was not below 5 µM.

As to `Cc1cc(-c2nnc(C(=O)N3CCc4[nH]cnc4C3c3nc4cc(F)ccc4o3)o2)nn1C` (stereo not drawn), the AC50 lay in the range of 1 to 5 µM.

Consider `O=C(c1cnn(-c2ccccn2)c1Cl)N1CCc2[nH]cnc2C1c1nc2cc(F)ccc2o1` (stereo not drawn) [listing 1 of 2 here], for which the AC50 was not below 5 µM. In the case of `O=C(c1cnn2cc(N3CCC4(CC3)CC4)ccc12)N1CCc2[nH]cnc2C1c1nc2cc(F)ccc2o1` (stereo not drawn) [listing 1 of 2 here] it was not below 5 µM; in that of `CNc1ccc2c(C(=O)N3CCc4[nH]cnc4C3c3nc4cc(F)ccc4o3)cnn2c1` (stereo not drawn) [listing 1 of 2 here], not below 5 µM.

Take `O=C(c1cnco1)N1CCc2[nH]cnc2C1c1nc2cc(F)ccc2o1` (stereo not drawn) [listing 1 of 2 here]: the AC50 is not below 5 µM. For `O=C(c1cncs1)N1CCc2[nH]cnc2C1c1nc2cc(F)ccc2o1` (stereo not drawn) [listing 1 of 2 here] the value was not below 5 µM; for `Cn1cc(-c2ncc(C(=O)N3CCc4[nH]cnc4C3c3nc4cc(F)ccc4o3)o2)cn1` (stereo not drawn) [listing 1 of 2 here], not below 5 µM. For `COC(C)(C)c1nc(C)c(C(=O)N2CCc3[nH]cnc3C2c2nc3cc(F)ccc3o2)o1` (stereo not drawn) [listing 1 of 2 here] the value was not below 5 µM. In the case of `O=C(c1nnc(-c2cc[nH]n2)o1)N1CCc2[nH]cnc2C1c1nc2cc(F)ccc2o1` (stereo not drawn) it was 1 to 5 µM; in that of `O=C(c1cnn2cc(N3CCOCC3)ccc12)N1CCc2[nH]cnc2C1c1nc2cc(F)ccc2o1` (stereo not drawn) [listing 1 of 2 here], not below 5 µM.

Regarding `Cc1nc(C(C)O)oc1C(=O)N1CCc2[nH]cnc2C1c1nc2cc(F)ccc2o1` (stereo not drawn), the AC50 is not below 5 µM. For the molecule `NCc1ccc2c(C(=O)N3CCc4[nH]cnc4C3c3nc4cc(F)ccc4o3)cnn2c1` (stereo not drawn), the AC50 fell in the range of 1 to 5 µM.

Turning to `Cc1nc(C2(O)CCC2)oc1C(=O)N1CCc2[nH]cnc2C1c1nc2cc(F)ccc2o1` (stereo not drawn) [listing 2 of 2 here], the half-maximal activity concentration (AC50) was 1 to 5 µM. In the case of `O=C(c1cn(-c2ccccn2)nc1Cl)N1CCc2[nH]cnc2C1c1nc2cc(F)ccc2o1` (stereo not drawn) it was 1 to 5 µM. In the case of `Cn1cc(C(=O)N2CCc3[nH]cnc3C2c2nc3cc(F)ccc3o2)c(Cl)n1` (stereo not drawn) it was 1 to 5 µM; in that of `Cn1nc(C(C)(C)O)cc1C(=O)N1CCc2[nH]cnc2C1c1nc2cc(F)ccc2o1` (stereo not drawn), not below 5 µM.

With `O=C(c1nnc(-c2cnn(CC(F)F)c2)o1)N1CCc2[nH]cnc2C1c1nc2cc(F)ccc2o1` (stereo not drawn), the AC50 is 1 to 5 µM. Regarding `O=C(c1nnc(C2CC(F)(F)C2)o1)N1CCc2[nH]cnc2C1c1nc2cc(F)ccc2o1` (stereo not drawn), the AC50 fell in the range of 1 to 5 µM. In the case of `O=C(c1cnn(-c2ccccn2)c1Cl)N1CCc2[nH]cnc2C1c1nc2cc(F)ccc2o1` (stereo not drawn) [listing 2 of 2 here] it was 1 to 5 µM; in that of `O=C(c1cnn2cc(N3CCC4(CC3)CC4)ccc12)N1CCc2[nH]cnc2C1c1nc2cc(F)ccc2o1` (stereo not drawn) [listing 2 of 2 here], 1 to 5 µM; in that of `CNc1ccc2c(C(=O)N3CCc4[nH]cnc4C3c3nc4cc(F)ccc4o3)cnn2c1` (stereo not drawn) [listing 2 of 2 here], 1 to 5 µM. For `O=C(C1CN(CC(F)(F)F)C1)N1CCc2[nH]cnc2C1c1nc2cc(F)ccc2o1` (stereo not drawn), the AC50 fell in the range of 1 to 5 µM.

Regarding `O=C(c1cnco1)N1CCc2[nH]cnc2C1c1nc2cc(F)ccc2o1` (stereo not drawn) [listing 2 of 2 here], the AC50 was 1 to 5 µM. For `O=C(c1cncs1)N1CCc2[nH]cnc2C1c1nc2cc(F)ccc2o1` (stereo not drawn) [listing 2 of 2 here] the value was 1 to 5 µM; for `Cn1cc(-c2ncc(C(=O)N3CCc4[nH]cnc4C3c3nc4cc(F)ccc4o3)o2)cn1` (stereo not drawn) [listing 2 of 2 here], 1 to 5 µM.

Consider `COC(C)(C)c1nc(C)c(C(=O)N2CCc3[nH]cnc3C2c2nc3cc(F)ccc3o2)o1` (stereo not drawn) [listing 2 of 2 here], for which the AC50 was in the range of 1 to 5 µM. Take `O=C(c1nnc(-c2cn[nH]c2)o1)N1CCc2[nH]cnc2C1c1nc2cc(F)ccc2o1` (stereo not drawn): the AC50 lay in the range of 1 to 5 µM.

Consider `Cc1n[nH]cc1-c1nnc(C(=O)N2CCc3[nH]cnc3C2c2nc3cc(F)ccc3o2)o1` (stereo not drawn), for which the AC50 lay in the range of 1 to 5 µM. On to `O=C(c1cnn2cc(N3CCOCC3)ccc12)N1CCc2[nH]cnc2C1c1nc2cc(F)ccc2o1` (stereo not drawn) [listing 2 of 2 here], for which the AC50 lay within 1 to 5 µM.

Turning to `CNCCc1ccc2c(C(=O)N3CCc4[nH]cnc4C3c3nc4cc(F)ccc4o3)cnn2c1` (stereo not drawn), the AC50 is not below 5 µM. In the case of `CC(C)(C)OC(=O)N1CC(c2nnc(C(=O)N3CCc4[nH]cnc4C3c3nc4cc(F)ccc4o3)o2)C1` (stereo not drawn) it was 1 to 5 µM. For `CC(C)(C)OC(=O)N1CCN(c2ccc3c(C(=O)N4CCc5[nH]cnc5C4c4nc5cc(F)ccc5o4)cnn3c2)CC1` (stereo not drawn) the value was 1 to 5 µM.
